Laboratory results published in patent publication US7723023B2, “Use of intrinsic reporters of cell signaling for high content drug profiling and toxicity screening” (Mount Sinai School of Medicine, priority 2001, dated 2010).

Legend:
[1] = tested on: serotonin 5-HT2A receptor; assay: Early gene expression in mouse somatosensory cortex after drug injection, real-time PCR; format: in vivo; details: 1 h after i.p. exposure
[2] = tested on: human serotonin 5-HT2A receptor; assay: Gene response landscape of IRCs in HEK293 cells expressing 5-HT2A receptor; format: cell-based; details: 10 genes, 8 concentrations, 1 hour, HEK293 cells expressing 5-HT2A receptors
Procedure: FIG. 6 is the gene response landscape for 5-HT and DOI in HEK293 cells expressing 5-HT2A receptors. The levels of gene induction in response to 8 concentrations of each agonist for 10 genes were determined in quadruplicate samples. The height of each peak represents the level of gene induction, expressed as fold-change. […] For example, the rightmost peak is highest with DOI exposure, but is lower with 5-HT exposure.
HEK293 cells were genetically engineered to stably express the human serotonin 5-HT2A receptor. Replicate aliquots of cells were treated with varying concentrations of 5-HT and DOI and the levels of a panel of IRCS after 1 hour exposure were determined by SYBR® green real-time PCR.

PC12 cells [3] = assay: IRC (c-fos, egr1) response to cytotoxin in PC12 cells by real-time PCR; format: cell-based, rat; details: 200 μM H2O2, 1 hour exposure
Procedure: The values shown are mean±s.e.m.
The samples assayed were the same as those used to generate FIG. 7.
(§1) This level of oxidative stress induced by H2O2 leads to cell death via apoptosis, as determined by increased Caspase 3 activity by 8 hours and a reduced MTT assay response at 24 hours. […] This would allow the prediction of the toxicity of a candidate drug in this cellular target by comparison of the pattern obtained with this drug to those observed with known toxins. Thus the toxins would generate a library of reference landscapes that would serve as predictors of the effects of candidate drugs. The comparison between candidate compounds and reference landscapes could be achieved by representing each IRC at one concentration as a different axis in a conceptual multidimensional space (or matrix) and determining the Euclidean distance between the location of the candidate response profile and that of the reference landscape. Candidates that are closer to the position of known toxins would be predicted to have a higher likelihood of inducing similar toxicity at the corresponding concentrations.

PC12 cells [4] = assay: Cell death of PC12 cells under oxidative stress (Caspase 3 activity, MTT assay); format: cell-based, rat
Procedure: as §1

[5] = tested on: PC12 cells that stably express the dopamine D2 receptor; details: 200 μM H2O2, 1 h, PC12-D2R cells
Procedure: Early genes β-actin, PC3, c-fos, and egr1 were assayed by real-time PCR.

Row | Structure (SMILES) | Induction of the 8 early genes in serotonin 5HT2A receptor gene-knockout mouse [1] | Level of gene induction (fold-change) compared with 5-HT [2] | cfos mRNA level (PC12 cells [3]) | egr1 mRNA level (PC12 cells [3]) | MTT assay response (PC12 cells [4]; 200 μM H2O2, at 24 hours) | Caspase 3 activity (PC12 cells [4]; 200 μM H2O2, by 8 hours) | Early genes induced (β-actin, PC3, c-fos, egr1 assayed) [5]
1 | COc1cc(CC(C)N)c(OC)cc1I (centres unmarked) [DOI] | no induction was observed | generally lower responses | – | – | – | – | –
2 | OO [H2O2] | – | – | marked increase | marked increase | reduced | increased | Three genes were found to be induced at 1 h: PC3, c-fos, and egr1
3 | CCN(CC)C(=O)[C@@H]1C=C2c3cccc4[nH]cc(c34)C[C@H]2N(C)C1 [LSD] | no induction was observed | – | – | – | – | – | –
